Consider six compounds from publication PMC9854868, “Structure–Activity Relationship Studies of Substitutions of Cationic Amino Acid Residues on Antimicrobial Peptides” (Antibiotics, 2022).

In one series the test system is E. coli DH5α. Type of series: cell-based, Escherichia coli. How it is done:
(§1) The selected bacterial strains were obtained from the Biological Resource Center, NITE (NBRC; Tokyo, Japan). Escherichia coli DH5α cells were purchased from BioDynamics Laboratory, Inc. (Tokyo, Japan). The antimicrobial activities of the peptides against […] and three Gram-negative bacteria, S. aureus NBRC 13276, E. coli DH5α, P. aeruginosa NBRC 13275, and MDRP were measured using the standard broth microdilution method, as previously described. Briefly, the bacteria were inoculated and grown overnight at 37 °C on the media for other organisms i (agar medium) and then collected with the media for other organisms ii (liquid medium), according to the Japanese Pharmacopoeia 17th Edition. Each peptide was 2-fold serially diluted with an initial concentration of 4000 μM–1.56 μM in PBS for use. Next, 10 μL of the peptide solution per well was added to each well of a sterile 96-well plate. Subsequently, 90 μL per well of inoculation with 10^4 CFUs (colony forming units) per mL was added to each well, and the plate was incubated for 18 h at 35 °C.

Another series concerns human red blood cells. The following applies: human RBCs in 172 mM Tris-HCl pH 7.6, 30 min at 37 °C, 100 to 0.39 μM, absorbance 535 nm; DMSO = 0%, M-Lycotoxin = 100%. The protocol: Human red blood cells (RBCs) were kindly supplied by the Japanese Red Cross Society (Tokyo, Japan) and were collected from volunteers under informed consent. The hemolysis test of peptides was performed using a previously reported method. In short, the RBCs were washed three times with 172 mM Tris-HCl buffer (pH = 7.6, wash buffer: WB), and 1.0 mL of sedimented erythrocytes was then transferred to 9.0 mL of WB. Then, 0.5 mL of this suspension was diluted in WB, and 50 µL of RBC suspension was incubated with 50 µL of each peptide for 30 min at 37 °C (final peptide conc from 100 to 0.39 μM). The suspensions were then centrifuged for 5 min at 400 rpm. The absorbance of the supernatant was measured at a wavelength of 535 nm. M-Lycotoxin [26] was used as a positive control, and the absorbances of the sample by treatment of DMSO and M-Lycotoxin were defined as 0 and 100%.

Another series has as its system P. aeruginosa NBRC 13275. Type of series: cell-based, Pseudomonas aeruginosa. Particulars: NBRC 13275, 18 h. The protocol:
as §1

The nature of series [1]: Digestion assay with proteinase K. Type of series: in vitro ADME. Particulars: proteinase K (isolated protease); proteinase K 0.002% (v/v), peptide 1 mM, 37 °C, 24 h, read-out HPLC, two independent experiments; read-out: remaining peptide after treatment with proteinase K. How it is done: (§2) The digestion assay was performed using Proteinase K of the digestive enzyme. Peptides (1 mM) were treated with 0.002% (v/v) Proteinase K and peptides were incubated at 37 °C for 2–24 h. A solution (0.1% TFA/H2O/MeCN) was added to quench the enzymatic reaction. The peptides were evaluated using analytical HPLC and a Discovery® BIO Wide Pore C18 column (25 cm × 4.6 mm, solvent A: 0.1% TFA/water, solvent B: 0.1% TFA/MeCN, flow rate: […], gradient: 10–60% gradient of solvent B over 30 min). Reproducibility was confirmed by the two independent experiments.

For the next series, the system named is MDRP. Type of series: cell-based, multidrug-resistant Pseudomonas aeruginosa. The following applies: 18 h. How it is done:
as §1

The next series concerns S. aureus NBRC 13276. Type of series: cell-based, Staphylococcus aureus. The following applies: NBRC 13276, 18 h. How it is done: as §1
A further series concerns the target proteinase K (Parengyodontium album, UniProt P06873). As to the kind of experiment: Digestion assay with proteinase K. The following applies: proteinase K 0.002% (v/v), peptide 1 mM, 37 °C, 2–24 h, HPLC; replacing Lys with Orn. Type of series: in vitro ADME. The protocol:
as §2

In brackets after ≈: the same amount, converted by molar mass. Where two headings read alike, the source gives them in different places. Square brackets hold non-standard residues; d marks the D form. Ends that are not written are not given here. Peptide text beside a SMILES is read from it. Orn = NCCC[C@H](N)C(=O)O; Dab = NCC[C@H](N)C(=O)O; Aib = CC(C)(N)C(=O)O

Sequence of proteinase K (P06873 106-384): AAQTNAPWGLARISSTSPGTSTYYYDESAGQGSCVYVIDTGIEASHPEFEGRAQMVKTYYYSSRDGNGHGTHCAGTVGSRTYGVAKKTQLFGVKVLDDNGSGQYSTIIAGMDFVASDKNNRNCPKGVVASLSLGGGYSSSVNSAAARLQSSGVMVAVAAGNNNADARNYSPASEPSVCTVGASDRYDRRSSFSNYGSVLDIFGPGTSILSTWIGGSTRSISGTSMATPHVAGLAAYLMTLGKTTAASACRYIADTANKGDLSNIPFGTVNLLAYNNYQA

In the case of `CC[C@H](C)[C@H](NC(=O)CN)C(=O)N[C@@H](CCCCN)C(=O)N[C@@H](CCCCN)C(=O)N[C@@H](Cc1ccccc1)C(=O)N[C@@H](CC(C)C)C(=O)N[C@@H](CCCCN)C(=O)N[C@@H](CO)C(=O)NC(C)(C)C(=O)N[C@@H](CCCCN)C(=O)N[C@@H](CCCCN)C(=O)N[C@@H](Cc1ccccc1)C(=O)N[C@H](C(=O)N[C@@H](CCCCN)C(=O)NC(C)(C)C(=O)N[C@@H](Cc1ccccc1)C(=O)N[C@@H](CCCCN)C(N)=O)C(C)C` [Peptide 1] (H-GIKKFLKS[Aib]KKFVK[Aib]FK-NH2), in the series on E. coli DH5α (DH5α, 18 h), the “MIC, Gram (–), E.Coli” value was 3.13 µM (≈ 6.25 µg/mL). In addition, the “Hemolysis (concentration that showed hemolytic activity greater than 50%)” value in the series with human red blood cells turned out to be 100 µM. Further, the “MIC, Gram (–), P.a.” value in the series on P. aeruginosa NBRC 13275 was 3.13 µM (≈ 6.25 µg/mL). Further, the amount remaining at 24 h, 1 mM in series [1] was ~20%. The “MIC, Gram (–), MDRP” value against MDRP was found to be 3.13 µM (≈ 6.25 µg/mL). Moreover, the “MIC, Gram (+), S.a.” value against S. aureus NBRC 13276 was 12.5 µM (≈ 24.9 µg/mL).
With `CC[C@H](C)[C@H](NC(=O)CN)C(=O)N[C@@H](CCCN)C(=O)N[C@@H](CCCN)C(=O)N[C@@H](Cc1ccccc1)C(=O)N[C@@H](CC(C)C)C(=O)N[C@@H](CCCN)C(=O)N[C@@H](CO)C(=O)NC(C)(C)C(=O)N[C@@H](CCCN)C(=O)N[C@@H](CCCN)C(=O)N[C@@H](Cc1ccccc1)C(=O)N[C@H](C(=O)N[C@@H](CCCN)C(=O)NC(C)(C)C(=O)N[C@@H](Cc1ccccc1)C(=O)N[C@@H](CCCN)C(N)=O)C(C)C` [Peptide 2] (H-GI[Orn][Orn]FL[Orn]S[Aib][Orn][Orn]FV[Orn][Aib]F[Orn]-NH2), the “MIC, Gram (–), E.Coli” value against E. coli DH5α (DH5α, 18 h) was 3.13 µM (≈ 5.94 µg/mL). For the same compound, the “Hemolysis (concentration that showed hemolytic activity greater than 50%)” value with human red blood cells was 50 µM. In addition, the “MIC, Gram (–), P.a.” value with P. aeruginosa NBRC 13275 is recorded as 6.25 µM (≈ 11.9 µg/mL). The share remaining at 24 h, 1 mM in series [1] came to 41%. Besides, the “prolongation of half life time (t1/2) against proteinase K versus peptide 1” value on proteinase K is “up to approximately two times”. Further, the “MIC, Gram (–), MDRP” value in the series on MDRP turned out to be 3.13 µM (≈ 5.94 µg/mL). The “MIC, Gram (+), S.a.” value in the series on S. aureus NBRC 13276 is given as 12.5 µM (≈ 23.7 µg/mL).
Regarding `CC[C@H](C)[C@H](NC(=O)CN)C(=O)N[C@@H](CCN)C(=O)N[C@@H](CCN)C(=O)N[C@@H](Cc1ccccc1)C(=O)N[C@@H](CC(C)C)C(=O)N[C@@H](CCN)C(=O)N[C@@H](CO)C(=O)NC(C)(C)C(=O)N[C@@H](CCN)C(=O)N[C@@H](CCN)C(=O)N[C@@H](Cc1ccccc1)C(=O)N[C@H](C(=O)N[C@@H](CCN)C(=O)NC(C)(C)C(=O)N[C@@H](Cc1ccccc1)C(=O)N[C@@H](CCN)C(N)=O)C(C)C` [Peptide 3] (H-GI[Dab][Dab]FL[Dab]S[Aib][Dab][Dab]FV[Dab][Aib]F[Dab]-NH2), the “MIC, Gram (–), E.Coli” value in the series on E. coli DH5α (DH5α, 18 h) is given as 3.13 µM (≈ 5.63 µg/mL). For the same compound, the “Hemolysis (concentration that showed hemolytic activity greater than 50%)” value with human red blood cells came to 25 µM. In addition, in the series with P. aeruginosa NBRC 13275, the “MIC, Gram (–), P.a.” value was 6.25 µM (≈ 11.2 µg/mL). Further, the “MIC, Gram (–), MDRP” value with MDRP amounted to 6.25 µM (≈ 11.2 µg/mL). Further, in the series with S. aureus NBRC 13276, the “MIC, Gram (+), S.a.” value came to 12.5 µM (≈ 22.5 µg/mL).
With `CC[C@H](C)[C@H](NC(=O)CN)C(=O)N[C@@H](CCCNC(=N)N)C(=O)N[C@@H](CCCNC(=N)N)C(=O)N[C@@H](Cc1ccccc1)C(=O)N[C@@H](CC(C)C)C(=O)N[C@@H](CCCNC(=N)N)C(=O)N[C@@H](CO)C(=O)NC(C)(C)C(=O)N[C@@H](CCCNC(=N)N)C(=O)N[C@@H](CCCNC(=N)N)C(=O)N[C@@H](Cc1ccccc1)C(=O)N[C@H](C(=O)N[C@@H](CCCNC(=N)N)C(=O)NC(C)(C)C(=O)N[C@@H](Cc1ccccc1)C(=O)N[C@@H](CCCNC(=N)N)C(N)=O)C(C)C` [Peptide 4] (H-GIRRFLRS[Aib]RRFVR[Aib]FR-NH2), the “MIC, Gram (–), E.Coli” value in the series with E. coli DH5α (DH5α, 18 h) is given as 3.13 µM (≈ 6.86 µg/mL). Moreover, the “Hemolysis (concentration that showed hemolytic activity greater than 50%)” value with human red blood cells was determined as 6.25 µM. In the series with P. aeruginosa NBRC 13275, the “MIC, Gram (–), P.a.” value is given as 12.5 µM (≈ 27.4 µg/mL). Besides, in the series on MDRP, the “MIC, Gram (–), MDRP” value was found to be 12.5 µM (≈ 27.4 µg/mL). Also, the “MIC, Gram (+), S.a.” value with S. aureus NBRC 13276 came to 3.13 µM (≈ 6.86 µg/mL).
On to `CC[C@H](C)[C@H](NC(=O)CN)C(=O)N[C@@H](Cc1c[nH]cn1)C(=O)N[C@@H](Cc1c[nH]cn1)C(=O)N[C@@H](Cc1ccccc1)C(=O)N[C@@H](CC(C)C)C(=O)N[C@@H](Cc1c[nH]cn1)C(=O)N[C@@H](CO)C(=O)NC(C)(C)C(=O)N[C@@H](Cc1c[nH]cn1)C(=O)N[C@@H](Cc1c[nH]cn1)C(=O)N[C@@H](Cc1ccccc1)C(=O)N[C@H](C(=O)N[C@@H](Cc1c[nH]cn1)C(=O)NC(C)(C)C(=O)N[C@@H](Cc1ccccc1)C(=O)N[C@@H](Cc1c[nH]cn1)C(N)=O)C(C)C` [Peptide 5] (H-GIHHFLHS[Aib]HHFVH[Aib]FH-NH2), for which the “MIC, Gram (–), E.Coli” value in the series with E. coli DH5α (DH5α, 18 h) is >50 µM. Besides, the “Hemolysis (concentration that showed hemolytic activity greater than 50%)” value in the series with human red blood cells is on record as >100 µM. For the same compound, the “MIC, Gram (–), P.a.” value in the series with P. aeruginosa NBRC 13275 is >50 µM. In addition, the “MIC, Gram (–), MDRP” value against MDRP is >50 µM. Also, in the series with S. aureus NBRC 13276, the “MIC, Gram (+), S.a.” value is given as >50 µM.
For the compound “GIGKFLHSAKKFGKAFVGEIMNS-NH2 [Mag2, magainin 2, reference compound]”, in the series on E. coli DH5α (E. coli DH5α, broth microdilution, 10^4 CFU per mL, 18 h at 35 °C, final concentration 0.39 to 100 μM, lowest concentration that completely inhibited growth), the “MIC, Gram (–), E.Coli” value came to 3.13 µM. Moreover, in the series with human red blood cells, the “Hemolysis (concentration that showed hemolytic activity greater than 50%)” value was >100 µM. Further, the “MIC, Gram (–), P.a.” value in the series on P. aeruginosa NBRC 13275 was 12.5 µM. Further, the “MIC, Gram (–), MDRP” value against MDRP was 12.5 µM. Besides, the “MIC, Gram (+), S.a.” value in the series with S. aureus NBRC 13276 came out at 100 µM.
